Reference: patent publication US5455241A, “Polycyclic compounds and processes for the preparation thereof” (Ciba-Geigy Corporation, priority 1993, dated 1995)
Read-outs that look alike come from different tables or passages of the source.

What was measured:
Stability in solution = format: physicochemical
[1] = test system: human bladder tumours T24; experiment: Anti-tumour activity in vivo, s.c. transplanted human bladder tumours T24 in hairless mice; set-up: species or system human tumour in female Balb/c hairless mice; conditions: 15 days
Procedure: Female Balb/c hairless mice with s.c. transplanted human bladder tumours T24 are used to determine the anti-tumour activity. With the animals under peroral forene narcosis, approximately 25 mg of a solid tumour are placed under the skin on "the animals' left flank on day 0 and the small incised wound is closed by means of suture clips. On day 6 after the transplantation, the mice are divided at random into groups of 6 animals and treatment commences. The treatment is carried out for 15 days with peroral or intraperitoneal administration once daily of a compound of formula I in dimethyl sulfoxide/Tween 80/sodium chloride solution in the various doses. The tumours are measured twice a week with a slide gauge and the volume of the tumours is calculated. In this test, the peroral or intraperitoneal administration of 3 mg/kg daily of a compound of formula I brings about a reduction in the average tumour volume to from 10 to 15% of the tumour volume in the untreated control animals.
Example 10: Anti-tumour activity of N-[0-(tetrahydropyran-4-yl)-D-lactoyl]-staurosporin in vivo:
The substance is formulated as follows: 12.5 mg of active ingredient are dissolved in 0.25 ml of dimethyl sulfoxide and mixed with 50 μof Tween 80.4.7 ml of a 0.9% sodium chloride solution are then added and the whole is mixed thoroughly.
Female Balb/c hairless mice with s.c. transplanted human bladder tumours T24 are used to determine the anti-tumour activity. With the animals under peroral forene narcosis, approximately 25 mg of a solid tumour are placed under the skin on the animals' left flank on day 0 and the small incised wound is closed by means of suture clips. On day 6 after the transplantation, the mice are divided at random into groups of 6 animals and treatment commences. The treatment is carried out for 15 days with the administration once daily of the various doses. The tumours are measured twice a week with a slide gauge and the volume of the tumours is calculated. The results are compiled in the following Table in which "dose" is the daily dose, "admin." is the mode of administration, "exper." is experiment and "T/C %" is the percentage quotient of the values in the treated mice and the untreated control mice.

[2] = Determination of the maximum tolerated dose (MTD); conditions: mouse, in vivo, 3 female Balb/c mice per dose, within 7 days
Procedure: Example 11: Determination of the maximum tolerated dose (MTD) of N-[0-(tetrahydro-pyran-4-yl) -D-lactoyl]- staurosporin
3 female Balb/c mice per dose are treated i.p. or p.o. with N-[O]-(tetrahydropyran-4-yl)-D-lactoyl]-staurosporin in dimethyl sulfoxide […]/sodium chloride solution (see Example 10 for formulation). The dose is increased until animals succumb within 7 days.

Row | stability in solution (Stability in solution) | SMILES | average tumour volume [T/C %] ([1]; 0.19 mg/kg daily i.p., Exper. 2) [%] | average tumour volume [T/C %] ([1]; 0.38 mg/kg daily i.p., Exper. 2) [%] | average tumour volume [T/C %] ([1]; 0.75 mg/kg daily i.p., Exper. 2) [%] | average tumour volume [T/C %] ([1]; 0.78 mg/kg daily p.o., Exper. 2) [%] | average tumour volume [T/C %] ([1]; 1.50 mg/kg daily i.p., Exper. 1) [%] | average tumour volume [T/C %] ([1]; 1.50 mg/kg daily i.p., Exper. 2) [%] | average tumour volume [T/C %] ([1]; 1.56 mg/kg daily p.o., Exper. 2) [%] | average tumour volume [T/C %] ([1]; 3.00 mg/kg daily i.p., Exper. 1) [%] | average tumour volume [T/C %] ([1]; 3.00 mg/kg daily i.p., Exper. 2) [%] | average tumour volume [T/C %] ([1]; 3.13 mg/kg daily p.o., Exper. 1) [%] | average tumour volume [T/C %] ([1]; 3.13 mg/kg daily p.o., Exper. 2) [%] | average tumour volume [T/C %] ([1]; 6.25 mg/kg daily p.o., Exper. 1) [%] | average tumour volume [T/C %] ([1]; 6.25 mg/kg daily p.o., Exper. 2) [%] | MTD at 168 h ([2]; ip, read-out: MTD (i.p.)) [mg/kg] | MTD at 168 h ([2]; po, read-out: MTD (p.o.)) [mg/kg]
1 | unstable in solution | CO[C@@H]1[C@H](N(C)C(=O)COC2CCOCC2)C[C@H]2O[C@]1(C)n1c3ccccc3c3c4c(c5c6ccccc6n2c5c31)C(=O)NC4O (stereo partly shown) [Example 7, N-[2-(tetrahydropyran-4-yl-oxy)-acetyl]-7-hydroxy-staurospo] |  |  |  |  |  |  |  |  |  |  |  |  |  |  | 
2 |  | CO[C@@H]1[C@H](N(C)C(=O)[C@@H](C)OC2CCOCC2)C[C@H]2O[C@]1(C)n1c3ccccc3c3c4c(c5c6ccccc6n2c5c31)C(=O)NC4 [N-[O-(tetrahydropyran-4-yl)-D-lactoyl]-staurosporin] | 74 | 62 | 32 | 58 | 14 | 19 | 31 | 9 | 11 | 17 | 14 | 15 | 12 | 31.2 | 62.5
